Experimental data reported in publication PMC6432629 (The Prostate, 2016).
Read-outs that look alike come from different tables or passages of the source. Numbered stars: 1 amine (or outer) side, 2 acyl side, 3 side chain; on linkers, the order of the positions; unused ones are H or OH. Square brackets hold non-standard residues; d marks the D form. Peptide text beside a SMILES is read from it. * marks the point of attachment. Emetine(N2') = CC[C@H]1CN2CCc3cc(OC)c(OC)cc3[C@@H]2C[C@@H]1C[C@@H]1c2cc(OC)c(OC)cc2CCN1*; PABC = O=C(OCc1ccc(N[*:1])cc1)[*:2]

Key:
[1] = system: FAP/DPPIV activity in 10% FBS; assay: Inhibition of hydrolysis of 10 to emetine in 10% FBS by FAP inhibitor; assay type: biochemical, bovine; conditions: Ac-Gly-boroPro 200 μM added to 10% FBS containing media
[2] = biological target: T1, FAP (Homo sapiens, UniProt Q12884); assay: FAP-mediated hydrolysis of prodrugs ex vivo; assay type: in vitro ADME; conditions: 37°C; for release of emetine on incubation with FAP (in words): FAP in FAP buffer / FAP containing media, LC-MS
T1 sequence (Q12884 27-760 limits assumed): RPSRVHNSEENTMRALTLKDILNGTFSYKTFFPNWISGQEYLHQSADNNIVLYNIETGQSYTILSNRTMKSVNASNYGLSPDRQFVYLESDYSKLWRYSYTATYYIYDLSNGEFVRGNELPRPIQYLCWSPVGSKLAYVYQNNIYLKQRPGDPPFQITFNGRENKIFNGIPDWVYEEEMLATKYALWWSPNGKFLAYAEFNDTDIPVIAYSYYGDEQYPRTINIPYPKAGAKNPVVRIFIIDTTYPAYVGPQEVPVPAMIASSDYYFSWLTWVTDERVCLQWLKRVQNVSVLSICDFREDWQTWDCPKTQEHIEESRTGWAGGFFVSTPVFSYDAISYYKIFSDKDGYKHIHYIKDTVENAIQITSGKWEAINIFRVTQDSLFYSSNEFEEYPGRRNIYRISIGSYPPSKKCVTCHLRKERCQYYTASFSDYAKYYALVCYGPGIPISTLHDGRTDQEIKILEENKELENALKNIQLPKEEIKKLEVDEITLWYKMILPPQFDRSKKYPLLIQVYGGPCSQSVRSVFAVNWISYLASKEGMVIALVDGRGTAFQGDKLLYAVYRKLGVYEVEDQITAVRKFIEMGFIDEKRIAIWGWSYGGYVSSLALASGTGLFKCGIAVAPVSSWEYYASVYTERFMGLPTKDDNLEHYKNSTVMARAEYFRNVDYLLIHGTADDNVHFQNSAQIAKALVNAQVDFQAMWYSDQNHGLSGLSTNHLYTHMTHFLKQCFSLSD

[3] = system: PC3; assay: MTT cell proliferation; conditions: for cytotoxicity to PC3 (in words): exposure time not given; for IC50 fold higher than that of emetine, PC3: in FAP-containing FBS
[4] = system: LNCaP; assay: MTT cell proliferation; conditions: for cytotoxicity to LNCaP (in words): exposure time not given
[5] = biological target: DPPIV (human recombinant CD26) (Homo sapiens, UniProt P27487); assay: DPPIV-mediated hydrolysis of prodrugs ex vivo; assay type: in vitro ADME
[6] = Hydrolysis of prodrugs in media with 10% FBS; assay type: in vitro ADME, bovine; conditions: for % emetine released, 10% FBS: RPMI media with 10% FBS, 500 μM compound, 1% DMSO, 24 hr, HPLC and MS
[7] = system: MCF-7; assay: MTT cell proliferation; conditions: for IC50: read-out: IC50 (nM) MCF-7
[8] = Stability in serum free media; assay type: in vitro ADME; conditions: 37°C, 72 hr incubation
[9] = system: PrEC cells; assay: Cytotoxicity in normal prostatic epithelial cells in serum free media
[10] = system: NCI 60 cancer cell screen; conditions: read-out: GI50 in NCI 60 cancer cell screen; no reference given; cited from earlier work
[11] = system: FAP and DPPIV; assay: mixture of purified FAP and DPPIV; conditions: 37°C, up to 24 hr
[12] = system: FAP; assay: FAP buffer; conditions: 37°C, up to 24 hr
[13] = system: DPPIV; assay: FAP buffer; conditions: Human, 37°C, up to 48 hr
[14] = very high concentration, incubation up to 48 hr at 37°C, LC-MS
[15] = read-out: IC50 (nM) PC3, Table II, 3-day exposure, media containing 10% FBS, MTT
[16] = read-out: IC50 (nM) LNCaP, Table II, 3-day exposure, media containing 10% FBS, MTT
[17] = Table II, 3-day exposure, media containing 10% FBS, MTT
[18] = 3-day exposure, media with 10% FBS

Chain of DPPIV (human recombinant CD26) (P27487 whole entry): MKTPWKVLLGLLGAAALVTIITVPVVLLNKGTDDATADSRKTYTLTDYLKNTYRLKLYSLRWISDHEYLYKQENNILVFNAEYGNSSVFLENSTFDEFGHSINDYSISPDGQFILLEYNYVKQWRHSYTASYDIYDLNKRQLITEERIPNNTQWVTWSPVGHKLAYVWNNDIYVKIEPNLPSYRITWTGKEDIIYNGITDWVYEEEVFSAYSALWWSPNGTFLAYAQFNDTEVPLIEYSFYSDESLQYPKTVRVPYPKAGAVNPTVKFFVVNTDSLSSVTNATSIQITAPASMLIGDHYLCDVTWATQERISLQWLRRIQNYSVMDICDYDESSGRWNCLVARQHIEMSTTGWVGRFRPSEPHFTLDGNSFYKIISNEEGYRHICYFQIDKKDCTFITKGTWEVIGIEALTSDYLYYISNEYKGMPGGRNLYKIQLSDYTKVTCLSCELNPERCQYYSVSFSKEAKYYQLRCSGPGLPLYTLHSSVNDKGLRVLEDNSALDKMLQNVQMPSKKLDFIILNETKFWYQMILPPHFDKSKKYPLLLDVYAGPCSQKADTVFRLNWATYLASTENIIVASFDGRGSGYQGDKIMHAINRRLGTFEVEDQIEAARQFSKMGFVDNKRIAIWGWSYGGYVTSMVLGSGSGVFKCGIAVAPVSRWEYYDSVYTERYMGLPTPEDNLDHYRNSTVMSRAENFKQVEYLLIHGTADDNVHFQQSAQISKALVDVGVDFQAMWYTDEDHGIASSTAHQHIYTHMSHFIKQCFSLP

CC(=O)NCC(=O)N1CCC[C@@H]1B(O)O [AcGBP, Ac-Gly-boroPro]
inhibition of release of emetine from 10 in 10% FBS, 2 hr ([1]; 2 hr): completely inhibited
decrease of release of emetine from 10 in 10% FBS, 24 hr ([1]; 24 hr): approximately 45%

CC[C@H]1CN2CCc3cc(OC)c(OC)cc3[C@@H]2C[C@@H]1C[C@@H]1c2cc(OC)c(OC)cc2CCN1C(=O)[C@@H]1CCCN1C(=O)CNC(=O)[C@H](C)NC(=O)[C@@H]1CCCN1C(=O)CNC(=O)[C@H](CO)NC(=O)[C@H](C)NC(C)=O [Compound 1] (Ac-ASGPAGP-{Emetine(N2')})
release of emetine on incubation with FAP (in words) ([2]; 24 hr): did not release detectable amounts of emetine
cytotoxicity to PC3 (in words) ([3]; media with 10% FBS): not cytotoxic
cytotoxicity to LNCaP (in words) ([4]; media with 10% FBS): not cytotoxic

CC[C@H]1CN2CCc3cc(OC)c(OC)cc3[C@@H]2C[C@@H]1C[C@@H]1c2cc(OC)c(OC)cc2CCN1C(=O)OCc1ccc(NC(=O)[C@@H]2CCCN2C(=O)CNC(=O)[C@H](C)NC(=O)[C@@H]2CCCN2C(=O)CNC(=O)[C@H](CO)NC(=O)[C@H](C)NC(C)=O)cc1 [Compound 2] (Ac-ASGPAGP[PABC]-{Emetine(N2')})
release of emetine on incubation with FAP (in words) ([2]; 24 hr): not cleaved by FAP containing media to release emetine
cytotoxicity to PC3 (in words) ([3]; media with 10% FBS): not cytotoxic
cytotoxicity to LNCaP (in words) ([4]; media with 10% FBS): not cytotoxic

CC[C@H]1CN2CCc3cc(OC)c(OC)cc3[C@@H]2C[C@@H]1C[C@@H]1c2cc(OC)c(OC)cc2CCN1C(=O)[C@H](C)NC(=O)[C@@H]1CCCN1C(=O)CNC(=O)[C@H](C)NC(=O)[C@@H]1CCCN1C(=O)CNC(=O)[C@H](CO)NC(=O)[C@H](C)NC(C)=O [Compound 3] (Ac-ASGPAGPA-{Emetine(N2')})
% cleavage to Ala-Gly-Pro-Ala-Emetine ([2]; 24 hr incubation with FAP): 100%
release of emetine on incubation with FAP (in words) ([2]; 24 hr): no further conversion to free emetine
IC50 fold higher than that of emetine, PC3 [3]: more than 150 fold

CC[C@H]1CN2CCc3cc(OC)c(OC)cc3[C@@H]2C[C@@H]1C[C@@H]1c2cc(OC)c(OC)cc2CCN1C(=O)OCc1ccc(NC(=O)[C@H](C)NC(=O)[C@@H]2CCCN2C(=O)CNC(=O)[C@H](C)NC(=O)[C@@H]2CCCN2C(=O)CNC(=O)[C@H](CO)NC(=O)[C@H](C)NC(C)=O)cc1 [Compound 4] (Ac-ASGPAGPA[PABC]-{Emetine(N2')})
% Ala-Gly-Pro-Ala-PABC-Emetine (minor cleavage product) ([2]; 24 hr incubation with FAP): 15%
% Ala-PABC-Emetine (major cleavage product) ([2]; 24 hr incubation with FAP): 85%
release of emetine on incubation with FAP (in words) ([2]; 24 hr): no further conversion to free emetine
IC50 fold higher than that of emetine, PC3 [3]: more than 150 fold

CC[C@H]1CN2CCc3cc(OC)c(OC)cc3[C@@H]2C[C@@H]1C[C@@H]1c2cc(OC)c(OC)cc2CCN1C(=O)[C@@H]1CCCN1C(=O)[C@H](C)N [Compound 9]
conversion to emetine by purified DPPIV (in words) [5, 14]: not converted to emetine
% emetine released, 10% FBS ([6]; 37°C): 0%
conversion to emetine in 10% FBS (in words) [6, 14]: not converted to emetine
cytotoxicity to PC3 (in words) ([3]; media with 10% FBS): inactive compared to emetine
IC50 [3, 15]: > 10000 nM
cytotoxicity to LNCaP (in words) ([4]; media with 10% FBS): inactive compared to emetine
IC50 [4, 16]: 9520 nM
cytotoxicity to MCF-7 (in words) ([7]; media with 10% FBS, exposure time not given): inactive compared to emetine
IC50 [7, 17]: > 10000 nM

CC[C@H]1CN2CCc3cc(OC)c(OC)cc3[C@@H]2C[C@@H]1C[C@@H]1c2cc(OC)c(OC)cc2CCN1C(=O)OCc1ccc(NC(=O)[C@@H]2CCCN2C(=O)[C@H](C)N)cc1 [Compound 10, Ala-Pro-PABC-Emetine]
% conversion to emetine by FAP, 24 hr ([2]; purified recombinant FAP 300 nM, 24 hr): 36%
% conversion to emetine by purified DPPIV, 2 hr ([5]; 10 at 500 μM (Fig. 3 legend: 200 μM), DPPIV 30 nM, 37°C, 2 hr): 88%
% conversion to emetine in 10% FBS, 2 hr ([6]; 10% FBS media, 37°C, 2 hr): 10%
% emetine released, 10% FBS ([6]; 37°C): 78%
stability in serum free media [8]: completely stable
cytotoxicity / IC50 compared with emetine, PC3 (in words) [3, 18]: cytotoxicity comparable to that of emetine
IC50 [3, 15]: 37.2 ± 1.6 nM
cytotoxicity / IC50 compared with emetine, LNCaP (in words) [4, 18]: cytotoxicity comparable to that of emetine
IC50 [4, 16]: 38.2 ± 1 nM
cytotoxicity / IC50 compared with emetine, MCF-7 (in words) [7, 18]: cytotoxicity comparable to that of emetine
IC50 [7, 17]: 38.4 ± 1.2 nM
cytotoxicity to PrEC (in words) ([9]; 100 nM, 1-3 days exposure, serum free media lacking FAP and DPPIV): no observable cytotoxicity

CC[C@H]1CN2CCc3cc(OC)c(OC)cc3[C@@H]2C[C@@H]1C[C@H]1NCCc2cc(OC)c(OC)cc21 [Emetine, emetine]
GI50 [10]: 27 nM
IC50 ([3]; Homo sapiens, PC-3, 120 h, read-out: PC3 [IC50 (nM)]): 29.4 ± 3.2 nM
IC50 ([4]; Homo sapiens, LNCaP, 120 h, read-out: LNCaP [IC50 (nM)]): 31.6 ± 2.4 nM
IC50 ([7]; Homo sapiens, MCF7, 72 h): 35.8 ± 1.6 nM
percentage of viable cells relative to control, day 1 ([9]; 100 nM, PrEC in serum free media lacking FAP and DPPIV, day 1): 80%
percentage of viable cells relative to control, day 2 ([9]; 100 nM, PrEC in serum free media lacking FAP and DPPIV, day 2): 50%
percentage of viable cells relative to control, day 3 ([9]; 100 nM, PrEC in serum free media lacking FAP and DPPIV, day 3): 10%
cytotoxicity to PrEC at 100 nM and 1,000 nM (in words) ([9]; 3-day exposure, keratinocyte serum free media, no FAP or DPPIV): highly cytotoxic
IC50 ([9]; Homo sapiens, PrEC, 72 h, read-out: calculated IC50 in the PrEC cell lines): 35.7 nM

Ac-Ala-Ser-Gly-Pro-Ala-Gly-Pro-Ala-Pro-PABC-Emetine
fragment found [11]: emetine, 2 hr
fragment found [12]: emetine

Ala-Pro-PABC-Emetine
fragment found [12]: emetine
fragment found [13]: emetine, 2 hr
